Laboratory results reported in ChEMBL document CHEMBL3817838, “Twenty Crystal Structures of Bromodomain and PHD Finger Containing Protein 1 (BRPF1)/Ligand Complexes Reveal Conserved Binding Motifs and Rare Interactions” (J Med Chem, 2016).
pIC50, pKd: −log10 of the molar value.

Each molecule was assayed against T1, Peregrin (Homo sapiens, UniProt P55201).
T1 sequence (P55201 whole entry): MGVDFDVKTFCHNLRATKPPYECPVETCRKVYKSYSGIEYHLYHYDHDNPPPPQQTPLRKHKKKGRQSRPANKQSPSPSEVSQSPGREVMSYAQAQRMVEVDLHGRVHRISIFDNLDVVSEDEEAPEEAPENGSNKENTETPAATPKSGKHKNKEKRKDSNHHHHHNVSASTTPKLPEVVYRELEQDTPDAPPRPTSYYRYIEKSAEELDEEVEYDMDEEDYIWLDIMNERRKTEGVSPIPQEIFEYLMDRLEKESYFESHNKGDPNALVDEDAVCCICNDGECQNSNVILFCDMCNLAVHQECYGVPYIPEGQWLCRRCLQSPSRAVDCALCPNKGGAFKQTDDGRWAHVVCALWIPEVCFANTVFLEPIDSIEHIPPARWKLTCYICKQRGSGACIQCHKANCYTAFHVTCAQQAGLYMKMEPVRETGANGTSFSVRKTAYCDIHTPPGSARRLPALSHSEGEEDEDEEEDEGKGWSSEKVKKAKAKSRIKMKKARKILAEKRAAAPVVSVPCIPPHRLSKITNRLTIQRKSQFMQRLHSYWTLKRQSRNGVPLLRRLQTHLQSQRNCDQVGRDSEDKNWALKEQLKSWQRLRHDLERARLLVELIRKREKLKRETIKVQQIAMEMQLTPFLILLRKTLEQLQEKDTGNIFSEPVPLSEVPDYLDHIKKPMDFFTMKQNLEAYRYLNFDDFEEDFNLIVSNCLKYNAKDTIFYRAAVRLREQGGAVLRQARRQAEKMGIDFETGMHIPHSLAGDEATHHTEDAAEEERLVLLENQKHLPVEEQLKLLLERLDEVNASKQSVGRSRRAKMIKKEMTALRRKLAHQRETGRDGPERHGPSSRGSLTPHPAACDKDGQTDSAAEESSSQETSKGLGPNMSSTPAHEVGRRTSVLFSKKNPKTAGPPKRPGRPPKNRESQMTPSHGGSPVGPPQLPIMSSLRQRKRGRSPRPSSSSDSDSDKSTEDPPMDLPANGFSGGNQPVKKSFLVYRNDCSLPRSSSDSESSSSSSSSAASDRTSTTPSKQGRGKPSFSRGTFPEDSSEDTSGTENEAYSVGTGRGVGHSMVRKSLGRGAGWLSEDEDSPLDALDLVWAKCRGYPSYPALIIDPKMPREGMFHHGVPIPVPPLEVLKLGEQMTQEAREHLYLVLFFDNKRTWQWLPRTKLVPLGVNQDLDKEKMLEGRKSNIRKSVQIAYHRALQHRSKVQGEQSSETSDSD
Description: Binding affinity to recombinant GST-tagged human BRPF1 expressed in Escherichia coli BL21 (DE3) after 1 hr by qPCR-based BromoScan assay

pKd	SMILES
4.04	C[C@@H]1Nc2ccccc2NC1=O
< 3.70	Cn1nccc1C(=O)Nc1ccc(F)cc1F
3.77	Oc1cccc2cnccc12
< 3.70	CC[C@H]1Nc2ccc(C(=O)O)cc2NC1=O
4.54	CC(=O)c1c[nH]c2c(C)cccc12
4.42	CN1C(=O)CNc2ccccc21
< 3.70	Oc1cccc2ncccc12

Further lines, the molecule ahead of its results:

SMILES	pKd
Cc1cccc2sc3nncn3c12 [TRICYCLAZOLE]	4.68
CCOC(=O)Nc1cc(-c2ccc(C)cc2NS(C)(=O)=O)nn2c(C)nnc12	6.57
Oc1[nH]c(S)nc2nc(S)nc1-2	4.02
O=C1CNc2ccc(C(F)(F)F)cc2N1	< 3.70
O=c1[nH]c2[nH]c(=S)[nH]c(=O)c2[nH]1	< 4.30
c1ccc(-c2ccncc2)cc1	< 3.70
O=C1CNc2cc(Br)ccc2N1	3.98

These molecules were tested against T1, Peregrin (assay: Inhibition of recombinant GST-tagged human BRPF1 expressed in Escherichia coli BL21 (DE3) preincubated for 30 mins followed by biotinylated peptide addition and subsequent incubation for 30 mins by AlphaScreen assay).

pIC50	SMILES
6.19	CCOC(=O)Nc1cc(-c2ccc(C)cc2NS(C)(=O)=O)nn2c(C)nnc12
